In US11214803B2, “Modulators of YAP1 expression” (Ionis Pharmaceuticals, Inc., priority 2019, dated 2022):
Strand notation (5' to 3'): a small letter for the sugar, then the base; units joined by * are phosphorothioate-linked, units joined directly phosphodiester-linked; [ ] holds rarer units or linkages, { } end groups; capitals alone tell only the bases. e = 2'-O-(2-methoxyethyl) (MOE); k = constrained ethyl (cEt); [5mC] = 5-methylcytosine; d = 2'-deoxy (DNA)

Tested on: Yap1 mRNA
Assay: Antisense inhibition of human Yap1 in SNU-449 cells by modified oligonucleotides, single dose (Example 5, RTS36584)
Format: cell-based
Conditions: Table 46; Yap1 mRNA as percent of untreated control, SNU-449 cells, single dose
Procedure, shortened: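 Each modified oligonucleotide is applied by free uptake to SNU-449 cultures at 2,000 nM, and total RNA is harvested around 48 h later. Yap1 transcript, quantified with the RTS36584 set and corrected for RIBOGREEN RNA content, is given as % UTC. Asterisks mark sequences overlapping the amplicon.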

Substance	YAP1 (% UT)
1198823 (kG*kG*dT*dA*dT*dA*dA*d[5mC]*dT*dG*dG*kG*e[5mC]*kA*eA*kA; antisense) [Compound 1198823]	65
1198824 (kA*kG*dG*dT*dA*dT*dA*dA*d[5mC]*dT*dG*kG*eG*k[5mC]*eA*kA; antisense) [Compound 1198824]	72
1198825 (kG*kA*dG*dG*dT*dA*dT*dA*dA*d[5mC]*dT*kG*eG*kG*e[5mC]*kA; antisense) [Compound 1198825]	64
1198826 (kA*kA*d[5mC]*dA*d[5mC]*dT*dG*dA*dG*dG*dT*kA*eT*kA*eA*k[5mC]; antisense) [Compound 1198826]	64
1198827 (kT*kT*dA*d[5mC]*dA*dT*dT*dA*dG*dG*dA*kA*e[5mC]*kA*eA*kG; antisense) [Compound 1198827]	60
1198828 (kT*kT*dT*dT*dA*d[5mC]*dA*dT*dT*dA*dG*kG*eA*kA*e[5mC]*kA; antisense) [Compound 1198828]	59
1198829 (k[5mC]*kT*dT*dT*dT*dA*d[5mC]*dA*dT*dT*dA*kG*eG*kA*eA*k[5mC]; antisense) [Compound 1198829]	36
1198830 (kA*k[5mC]*dT*dT*dT*dT*dA*d[5mC]*dA*dT*dT*kA*eG*kG*eA*kA) [Compound 1198830]	37
1198831 (k[5mC]*kA*d[5mC]*dT*dT*dT*dT*dA*d[5mC]*dA*dT*kT*eA*kG*eG*kA; antisense) [Compound 1198831]	12
1198832 (kG*k[5mC]*dA*d[5mC]*dT*dT*dT*dT*dA*d[5mC]*dA*kT*eT*kA*eG*kG; antisense) [Compound 1198832]	20
1198833 (kA*kG*d[5mC]*dA*d[5mC]*dT*dT*dT*dT*dA*d[5mC]*kA*eT*kT*eA*kG; antisense) [Compound 1198833]	54
1198834 (kA*kA*dG*d[5mC]*dA*d[5mC]*dT*dT*dT*dT*dA*k[5mC]*eA*kT*eT*kA; antisense) [Compound 1198834]	54
1198835 (kT*kT*dA*dA*dG*d[5mC]*dA*d[5mC]*dT*dT*dT*kT*eA*k[5mC]*eA*kT; antisense) [Compound 1198835]	85
1198836 (kG*kG*dA*dA*dG*dA*dT*d[5mC]*dT*dG*dA*kA*eA*k[5mC]*eT*k[5mC]; antisense) [Compound 1198836]	43
1198837 (kT*kT*dG*dG*dA*dA*dG*dA*dT*d[5mC]*dT*kG*eA*kA*eA*k[5mC]; antisense) [Compound 1198837]	66
1198838 (kT*kT*dT*dG*dG*dA*dA*dG*dA*dT*d[5mC]*kT*eG*kA*eA*kA; antisense) [Compound 1198838]	66
1198839 (k[5mC]*kT*dT*dT*dG*dG*dA*dA*dG*dA*dT*k[5mC]*eT*kG*eA*kA; antisense) [Compound 1198839]	36
1198840 (kG*k[5mC]*dT*dT*dT*dG*dG*dA*dA*dG*dA*kT*e[5mC]*kT*eG*kA; antisense) [Compound 1198840]	26
1198841 (kT*kG*d[5mC]*dT*dT*dT*dG*dG*dA*dA*dG*kA*eT*k[5mC]*eT*kG; antisense) [Compound 1198841]	116
1198842 (kG*kT*dG*d[5mC]*dT*dT*dT*dG*dG*dA*dA*kG*eA*kT*e[5mC]*kT; antisense) [Compound 1198842]	37
1198843 (kA*kG*dT*dG*d[5mC]*dT*dT*dT*dG*dG*dA*kA*eG*kA*eT*k[5mC]; antisense) [Compound 1198843]	45
1198844 (kA*kT*dA*dG*dT*dG*d[5mC]*dT*dT*dT*dG*kG*eA*kA*eG*kA; antisense) [Compound 1198844]	56

Substance	YAP1 (% UT)
1198845 (kA*kG*dG*dA*dT*dG*d[5mC]*dA*dT*dG*dG*kT*eT*kT*eT*kT; antisense) [Compound 1198845]	43
1198846 (kT*kT*dA*dG*dG*dA*dT*dG*d[5mC]*dA*dT*kG*eG*kT*eT*kT; antisense) [Compound 1198846]	34
1198847 (kT*kT*dT*dA*dG*dG*dA*dT*dG*d[5mC]*dA*kT*eG*kG*eT*kT; antisense) [Compound 1198847]	51
1198848 (kA*kT*dT*dT*dA*dG*dG*dA*dT*dG*d[5mC]*kA*eT*kG*eG*kT; antisense) [Compound 1198848]	47
1198849 (kG*kA*dT*dT*dT*dA*dG*dG*dA*dT*dG*k[5mC]*eA*kT*eG*kG; antisense) [Compound 1198849]	42
1198850 (kA*kG*dA*dT*dT*dT*dA*dG*dG*dA*dT*kG*e[5mC]*kA*eT*kG; antisense) [Compound 1198850]	33
1198851 (CAGATTTAGGATGCAT; antisense; chemistry not fully specified) [Compound 1198851]	82
1198852 (kT*k[5mC]*dA*dG*dA*dT*dT*dT*dA*dG*dG*kA*eT*kG*e[5mC]*kA; antisense) [Compound 1198852]	41
1198853 (kA*kT*dT*d[5mC]*dA*dG*dA*dT*dT*dT*dA*kG*eG*kA*eT*kG; antisense) [Compound 1198853]	105
1198854 (kA*kT*dA*dT*dG*dG*dT*dT*dT*dT*dG*kT*eG*kT*eG*kT; antisense) [Compound 1198854]	56
1198855 (kT*kT*dA*dT*dA*dT*dG*dG*dT*dT*dT*kT*eG*kT*eG*kT; antisense) [Compound 1198855]	30
1198856 (k[5mC]*kT*dT*dA*dT*dA*dT*dG*dG*dT*dT*kT*eT*kG*eT*kG; antisense) [Compound 1198856]	20
1198857 (kT*k[5mC]*dT*dT*dA*dT*dA*dT*dG*dG*dT*kT*eT*kT*eG*kT; antisense) [Compound 1198857]	19
1198863 (kA*kT*dT*dG*d[5mC]*dA*dA*dT*d[5mC]*dT*dG*kT*e[5mC]*kT*eG*kA; antisense) [Compound 1198863]	65
1198864 (kA*kT*dA*dT*dT*dG*d[5mC]*dA*dA*dT*d[5mC]*kT*eG*kT*e[5mC]*kT; antisense) [Compound 1198864]	56
1198865 (kA*kA*dT*dA*dT*dT*dG*d[5mC]*dA*dA*dT*k[5mC]*eT*kG*eT*k[5mC]; antisense) [Compound 1198865]	38
1198866 (kT*kA*dA*dT*dA*dT*dT*dG*d[5mC]*dA*dA*kT*e[5mC]*kT*eG*kT; antisense) [Compound 1198866]	60
1198867 (kG*kT*dA*dA*dT*dA*dT*dT*dG*d[5mC]*dA*kA*eT*k[5mC]*eT*kG; antisense) [Compound 1198867]	25
1198868 (kT*kG*dT*dA*dA*dT*dA*dT*dT*dG*d[5mC]*kA*eA*kT*e[5mC]*kT; antisense) [Compound 1198868]	49
1198869 (kA*kT*dG*dT*dA*dA*dT*dA*dT*dT*dG*k[5mC]*eA*kA*eT*k[5mC]; antisense) [Compound 1198869]	49
1198870 (kT*kA*dT*dG*dT*dA*dA*dT*dA*dT*dT*kG*e[5mC]*kA*eA*kT; antisense) [Compound 1198870]	86
1198871 (kT*kT*dT*dA*dT*dG*dT*dA*dA*dT*dA*kT*eT*kG*e[5mC]*kA; antisense) [Compound 1198871]	77

Same assay, conditions: Yap1 mRNA, percent of untreated control; modified oligonucleotides targeting SEQ ID NO: 1 and 2; Table 47

Substance	YAP1 (% UT)
1198858 (k[5mC]*kT*d[5mC]*dT*dT*dA*dT*dA*dT*dG*dG*kT*eT*kT*eT*kG) [Compound 1198858]	29
1198859 (kA*k[5mC]*dT*d[5mC]*dT*dT*dA*dT*dA*dT*dG*kG*eT*kT*eT*kT; antisense) [Compound 1198859]	33
1198860 (kA*kA*d[5mC]*dT*d[5mC]*dT*dT*dA*dT*dA*dT*kG*eG*kT*eT*kT; antisense) [Compound 1198860]	82
1198861 (CAACTCTTATATGGTT; chemistry not fully specified) [Compound 1198861]	100
1198862 (kG*kA*d[5mC]*dA*dA*d[5mC]*dT*d[5mC]*dT*dT*dA*kT*eA*kT*eG*kG; antisense) [Compound 1198862]	72
1198872 (kT*kG*dT*dA*dT*dG*dT*d[5mC]*dA*dG*dA*kA*eG*kA*eG*kT; antisense) [Compound 1198872]	8
1198873 (kA*kG*dT*dG*dT*dA*dT*dG*dT*d[5mC]*dA*kG*eA*kA*eG*kA; antisense) [Compound 1198873]	4
1198874 (kA*kA*dG*dT*dG*dT*dA*dT*dG*dT*d[5mC]*kA*eG*kA*eA*kG) [Compound 1198874]	2
1198875 (kA*kA*dA*dG*dT*dG*dT*dA*dT*dG*dT*k[5mC]*eA*kG*eA*kA; antisense) [Compound 1198875]	5
